This is an account of results in ChEMBL document CHEMBL1148176, “Polycyclic guanidine alkaloids from the marine sponge Crambe crambe and Ca++ channel blocker activity of crambescidin 816” (J Nat Prod, 1993).

Data set [1] concerns Ileum. The data set is described as follows: Inhibition of acetylcholine-induced contraction in guinea pig ileum. The class given is functional, tissue-based. Particulars: Cavia porcellus.
For data set [2], the system named is Jejunum. The data set is described as follows: Inhibition of acetylcholine-induced contraction in Sprague-Dawley rat jejunum pretreated for 3 mins before acetylcholine challenge. The class given is functional, tissue-based.
In data set [3] the test system is Jejunum. The data set is described as follows: Inhibition of acetylcholine-induced contraction in Sprague-Dawley rat jejunum at 0.6 pM pretreated for 3 mins before acetylcholine challenge. The class given is functional.
Data set [4] deals with Jejunum. Briefly: Inhibition of acetylcholine-induced contraction in Sprague-Dawley rat jejunum at 1.2 pM pretreated for 3 mins before acetylcholine challenge. The class given is functional.
Data set [5] concerns Jejunum. Briefly: Inhibition of acetylcholine-induced contraction in Sprague-Dawley rat jejunum at 6.0 pM pretreated for 3 mins before acetylcholine challenge. The class given is functional.
For data set [6], the system named is Ephydatia fluviatilis. The data set is described as follows: Inhibition of reaggregation of cells in Ephydatia fluviatilis. The class given is functional.
Data set [7] deals with Poecilia reticulata. The data set is described as follows: Toxicity against Lebistes reticulatus at 0.2 mg/l. The class given is organism-based. Particulars: in vivo.
Data set [8] relates to Jejunum. The data set is described as follows: Inhibition of Sprague-Dawley rat jejunum contraction at 0.6 to 6.0 pM. The class given is functional, tissue-based.
A short description of data set [9]: Cytotoxicity against human HCT16 cells. The class given is functional, cell-based.
The target of data set [10] is L-type calcium channel (Mus musculus, UniProt Q01815+Q02789+Q99246+Q9JIS7). The data set is described as follows: Antagonist activity at voltage-dependent L-type calcium channel in mouse neurobalstoma-rat glioma NG 108-15 hybrid cells assessed as inhibition of KCl-induced increase in intracellular calcium level pretreated for 3 mins before KCl challenge. The class given is functional, cell-based. A general note: Calcium flux is commonly read through the fluorescence of an indicator in the cells.

Active and inactive are the calls of the source. The calls are words filed in the database; no cut-off is given here.

A word on the inhibition: it is how much of the control response was suppressed. Regarding `CC[C@H]1C=CCC[C@]2(C[C@H]3CC[C@]4(O)[C@H](C(=O)OCCCCCCCCCCCCCCCC(=O)N(CCCN)C[C@@H](O)CCN)[C@@]5(CCC[C@@H](C)O5)NC(=[N+]34)N2)O1.[Cl-]` [CRAMBESCIDIN 816 HYDROCHLORIDE], the result in data set [1] was Active. In addition, the Activity entry is “Dose-dependent effect” in [2], 1.2 mM in data set [6], “Toxic” in data set [7] and “Dose-dependent effect” in [10] (mouse). In addition, the inhibition at 600 fM in [3] was 18%. Moreover, the inhibition at 1.2 pM in [4] worked out at 25%. The inhibition at 6 pM in data set [5] amounted to 30%. The result in data set [8] was inactive. Besides, the figures for the IC50 in data set [9] and in [10] were 0.24 µg/mL and 1.5 ×10⁻⁴ microM, respectively.
Regarding `CCCCCCCCCCCC1N=C(N)N2CCCC2=C1C(=O)OCCCCNC(=N)N.Cl` (stereo not drawn) [CRAMBINE A], the Activity in [6] is 2.3 mM; in data set [7] it was “Toxic”.
For the compound `CCCCCCCCCCC[C@@H]1N=C(N)N[C@]2(CCCO2)[C@@H]1C(=O)OCCCCCNC(=N)N.Cl` [CRAMBINE B], the Activity in data set [6] is 2 mM; in data set [7] it was “Toxic”.
With `CCCCCCCCCCCC1N=C(N)NC(CCCO)=C1C(=O)OCCCCCNC(=N)N.Cl` (stereo not drawn) [CRAMBINE C1], the Activity in data set [6] was 2.1 ×10⁻² M; in [7], “Toxic”.
`COC(=O)C1=C(C)NC(C)=C(C(=O)OC)C1c1ccccc1[N+](=O)[O-]` [NIFEDIPINE]: the IC50 in data set [10] was 1.2 µM.
